According to patent publication US10709706B2, “Nuclear transport modulators and uses thereof” (Karyopharm Therapeutics Inc., priority 2015, dated 2020):

Columns and labels:
Type in all cases: cell-based
MM1S cells = assay: MTT cell proliferation assay, MM1S cells; conditions: Homo sapiens, MM1.S, MM1S multiple myeloma cells, approximately 64-72 hours, 1 nM to 30 μM
Experimental: (§1) The MTT cell proliferation assay was used to study the cytotoxic properties of the compounds. The assay was performed according to the method described by Roche Molecular Biochemicals, with minor modifications. The assay is based on the cleavage of the tetrazolium salt, MTT, in the presence of an electron-coupling reagent. The water-insoluble formazan salt produced must be solubilized in an additional step. Cells grown in a 96-well tissue culture plate were incubated with the MTT solution for approximately 4 hours. After this incubation period, a water-insoluble formazan dye formed. After solubilization, the formazan dye was quantitated using a scanning multi-well spectrophotometer (ELISA reader). […] The cells were seeded at 5,000-10,000 cells in each well of 96-well plate in 100 μL of fresh culture medium and were allowed to attach overnight. The stock solutions of the compounds were diluted in 100 μL cell culture medium to obtain eight concentrations of each test compound, ranging from 1 nM to 30 μM. […] All optical densities were measured at 490 nm using a Vmax Kinetic Microplate Reader (Molecular Devices). In most cases, the assay was performed in duplicate and the results were presented as a mean percent inhibition to the negative control±SE. The following formula was used to calculate the percent of inhibition: Inhibition (%)=(1−(ODo/OD))×100.
(§2) The compounds were tested against Z138, MM1S and 3T3 cells. The Z138 cell line is a mature B-cell acute lymphoblastic leukemia cell line derived from a patient with chronic lymphocytic leukemia. The MM1S cell line was established from the peripheral blood of a human multiple myeloma patient. 3T3 cells are standard fibroblast cells; they were originally isolated from Swiss mouse embryo tissue.

3T3 cells = assay: MTT cell proliferation assay, 3T3 cells; conditions: Mus musculus, NIH3T3, 3T3 fibroblast cells, approximately 64-72 hours, 1 nM to 30 μM
Experimental: as §1, §2

Z138 cells = assay: MTT cell proliferation assay, Z138 cells; conditions: Homo sapiens, Z-138, approximately 64-72 hours, 1 nM to 30 μM
Experimental: as §1, §2

| SMILES | IC50 (MM1S cells) | IC50 (3T3 cells) | IC50 (Z138 cells) |
| --- | --- | --- | --- |
| NC(=O)/C(=C/c1ccnc(-c2cc(C(F)(F)F)cc(C(F)(F)F)c2)n1)c1ccc(Cl)c(Cl)c1 [Compound 153, (E)-3-(2-(3,5-bis(trifluoromethyl)phenyl)pyrimidin-4-yl)-2-(3,4-dichlorophenyl)acrylamide] | 0.1 to 5 µM | > 30 µM | > 30 µM |
| NC(=O)/C(=C/c1ccnc(-c2cc(C(F)(F)F)cc(C(F)(F)F)c2)n1)c1ccc(S(=O)(=O)N2CC(F)(F)C2)cc1 [Compound 130, (E)-3-(2-(3,5-bis(trifluoromethyl)phenyl)pyrimidin-4-yl)-2-(4-((3,3-difluoroazetidin-1-yl)sulfonyl)phenyl)acrylamide] | 5 to 30 µM | > 30 µM | > 30 µM |
| NC(=O)/C(=C\c1nccc(-c2cc(C(F)(F)F)cc(C(F)(F)F)c2)n1)c1cncnc1 [Compound 110, (Z)-3-(4-(3,5-bis(trifluoromethyl)phenyl)pyrimidin-2-yl)-2-(pyrimidin-5-yl)acrylamide] | > 30 µM | > 30 µM | > 30 µM |
| NC(=O)/C(=C/c1ccnc(-c2cc(C(F)(F)F)cc(C(F)(F)F)c2)n1)c1ccc(N2CCOCC2)cc1 [Compound 165, (E)-3-(2-(3,5-bis(trifluoromethyl)phenyl)pyrimidin-4-yl)-2-(4-morpholinophenyl)acrylamide] | > 30 µM | > 30 µM | > 30 µM |
| NC(=O)/C(=C/c1ccnc(-c2cc(C(F)(F)F)cc(C(F)(F)F)c2)n1)c1ccc(-c2cccnc2)cc1 [Compound 142, (E)-3-(2-(3,5-bis(trifluoromethyl)phenyl)pyrimidin-4-yl)-2-(4-(pyridin-3-yl)phenyl)acrylamide] | > 30 µM | > 30 µM | > 30 µM |
| NC(=O)/C(=C/c1ccnc(-c2cc(C(F)(F)F)cc(C(F)(F)F)c2)n1)c1cccc(S(=O)(=O)N2CCOCC2)c1 [Compound 129, (E)-3-(2-(3,5-bis(trifluoromethyl)phenyl)pyrimidin-4-yl)-2-(3-(morpholinosulfonyl)phenyl)acrylamide] | > 30 µM | > 30 µM | > 30 µM |
| NC(=O)/C(=C/c1ccnc(-c2cc(C(F)(F)F)cc(C(F)(F)F)c2)n1)c1cncnc1 [Compound 112, (E)-3-(2-(3,5-bis(trifluoromethyl)phenyl)pyrimidin-4-yl)-2-(pyrimidin-5-yl)acrylamide] | 0.1 to 5 µM | > 30 µM | 0.1 to 5 µM |
| O=C(O)/C(=C/c1nccc(-c2cc(C(F)(F)F)cc(C(F)(F)F)c2)n1)c1cncnc1 [Compound 109, (E)-3-(4-(3,5-bis(trifluoromethyl)phenyl)pyrimidin-2-yl)-2-(pyrimidin-5-yl)acrylic acid] | > 30 µM | > 30 µM | > 30 µM |

Second part, led by results:

| IC50 (MM1S cells) | SMILES | IC50 (3T3 cells) | IC50 (Z138 cells) |
| --- | --- | --- | --- |
| > 30 µM | NC(=O)/C(=C/c1cncc(-c2cc(C(F)(F)F)cc(C(F)(F)F)c2)n1)c1cncnc1 [Compound 114, (E)-3-(6-(3,5-bis(trifluoromethyl)phenyl)pyrazin-2-yl)-2-(pyrimidin-5-yl)acrylamide] | > 30 µM | > 30 µM |
| > 30 µM | CS(=O)(=O)Nc1cccc(/C(=C\c2ccnc(-c3cc(C(F)(F)F)cc(C(F)(F)F)c3)n2)C(N)=O)c1 [Compound 144, (E)-3-(2-(3,5-bis(trifluoromethyl)phenyl)pyrimidin-4-yl)-2-(3-(methylsulfonamido)phenyl)acrylamide] | > 30 µM | > 30 µM |
| 0.1 to 5 µM | NC(=O)/C(=C/c1ccnc(-c2cc(C(F)(F)F)cc(C(F)(F)F)c2)n1)c1cc2ccccc2s1 [Compound 137, (Z)-2-(benzo[b]thiophen-2-yl)-3-(2-(3,5-bis(trifluoromethyl)phenyl)pyrimidin-4-yl)acrylamide] | > 30 µM | 0.1 to 5 µM |
| > 30 µM | CN1CCN(S(=O)(=O)c2cccc(/C(=C\c3ccnc(-c4cc(C(F)(F)F)cc(C(F)(F)F)c4)n3)C(N)=O)c2)CC1 [Compound 146, (E)-3-(2-(3,5-bis(trifluoromethyl)phenyl)pyrimidin-4-yl)-2-(3-((4-methylpiperazin-1-yl)sulfonyl)phenyl)acrylamide] | > 30 µM | > 30 µM |
| > 30 µM | NC(=O)/C(=C/c1ccnc(-c2cc(C(F)(F)F)cc(C(F)(F)F)c2)n1)c1ccc(S(=O)(=O)N2CCCCC2)cc1 [Compound 156, (E)-3-(2-(3,5-bis(trifluoromethyl)phenyl)pyrimidin-4-yl)-2-(4-(piperidin-1-ylsulfonyl)phenyl)acrylamide] | > 30 µM | > 30 µM |
| 0.1 to 5 µM | N#Cc1cncc(/C(=C\c2ccnc(-c3cc(C(F)(F)F)cc(C(F)(F)F)c3)n2)C(N)=O)c1 [Compound 119, (E)-3-(2-(3,5-bis(trifluoromethyl)phenyl)pyrimidin-4-yl)-2-(5-cyanopyridin-3-yl)acrylamide] | > 30 µM | 0.1 to 5 µM |
| > 30 µM | NC(=O)/C(=C/c1nccc(-c2cc(C(F)(F)F)cc(C(F)(F)F)c2)n1)c1cncnc1 [Compound 113, (E)-3-(4-(3,5-bis(trifluoromethyl)phenyl)pyrimidin-2-yl)-2-(pyrimidin-5-yl)acrylamide] | > 30 µM | > 30 µM |
